One may read the IC50 as the concentration at which inhibition is half-maximal. A word on the inhibition: it is how much of the control response was suppressed.

In one data set the test system is U87 glioblastoma cells. Description: MTT cell viability assay, U87 cells, 48 h. It counts as cell-based, human. On the procedure: (§1) Cells were seeded in quadruplicate in 96-well plates at 10,000 cells/well and allowed to adhere overnight. The medium was then replaced with serum-free DMEM containing increasing concentrations of soloxolone amides for 48 h. After incubation, 3-(4,5-dimethylthiazol-2-yl)-2,5-diphenyltetrazolium bromide (MTT dye) was added at a final concentration of 0.5 mg/mL and left for 2 h. The resulting formazan crystals were dissolved in DMSO and the optical density was measured at 570 nm using a Multiscan RC plate reader (Thermo LabSystems, Helsinki, Finland).
On the technique in general: Tetrazolium dyes change colour on reduction, which living cells bring about.

In data set [1] the test system is EPNT-5 glioblastoma cells. Description: MTT cell viability assay, EPNT-5 cells, 48 h. Format: cell-based. To be noted: Mus musculus. The procedure: as §1
Data set [2] has as its system non-malignant human hFF3 fibroblasts. Description: MTT cell viability assay, hFF3 fibroblasts, 48 h. It counts as cell-based. As to conditions: 7 at 400 nM. On the procedure:
as §1

The test system of a further data set is TGF-β1-induced U87 cells. The data set can be described thus: Cell morphology (cell size) of TGF-β1-induced U87 cells. It counts as cell-based, human. To be noted: TGF-β1 50 ng/mL, non-toxic concentrations, 48 h. On the procedure: (§2) After seeding at a concentration of 5,000 cells/well in triplicate in 96-well plates and incubating overnight, U87 and U118 cells were exposed to TGF-β1 (50 ng/mL) and non-toxic concentrations of soloxolone amides for 48 h. An EVOS XL Core microscope with an integrated CMOS camera (Thermo Fisher Scientific, USA) was then used to examine cell morphology at ×20 magnification. Aspect ratio (AR) and area were quantified for at least 150 cells in each experimental group using ImageJ software (NIH, USA).

For data set [3], the system named is TGF-β1-induced U118 cells. The data set can be described thus: Cell morphology (aspect ratio) of TGF-β1-induced U118 cells. It counts as cell-based, human. As to conditions: TGF-β1 50 ng/mL, 7 50 nM, 48 h. On the procedure:
as §2

The subject of a further data set is TGF-β1-treated U87 cells. Description: Transwell migration (xCELLigence), U87 cells. Format: cell-based, human. To be noted: U87, 7 50 nM, TGF-β1 50 ng/mL, at 72 h. The procedure:
To perform transwell migration, U87 cells were pretreated with TGF-β1 (50 ng/mL) and compound 7 (50 nM) for 48 h. Subsequently, 250,000 cells were placed in the upper chamber of the CIM-16 xCELLigence plate in serum-free DMEM supplemented with compound 7 and TGF-β1 (n = 4), while the lower chamber was filled with DMEM containing 10% FBS. Cell migration was monitored for 72 h using the xCELLigence RTCA DP system (ACEA Biosciences Inc., San Diego, CA, USA). The electrodes placed under the porous membrane detected changes in resistance, which were then converted into cell indices proportional to the number of migrating cells.

The test system of data set [4] is TGF-β1-treated U118 cells. Description: Scratch (wound closure) assay, U118 cells. Format: cell-based, human. As to conditions: U118, 7 50 nM, TGF-β1 50 ng/mL. On the procedure:
For the scratch assay, U118 cells were seeded in triplicate in 24-well plates at a concentration of 300,000 cells/well and allowed to adhere overnight. The cells were then scratched with a 10 μL plastic pipette tip, washed with PBS, and covered with serum-free DMEM containing TGF-β1 (50 ng/mL) and compound 7 (50 nM). Scratches were photographed at 0, 24, and 48 h using an EVOS XL Core microscope. Wound closure was determined by estimating the scratch area at each time point using ImageJ software and normalizing to the scratch area at 0 h.

The test system of data set [5] is U118 cells. Description: Colony formation assay, U118 cells. Format: cell-based. To be noted: Homo sapiens, 240 h, 10 days. The procedure:
U87, U118 and EPNT-5 cells were seeded at a density of 200 cells/well in 96-well plates and treated with increasing concentrations of compound 7 (0–1,000 nM) dissolved in 10% FBS-containing DMEM (n = 5). On day 10, colonies were fixed with 4% formaldehyde and stained with crystal violet dye (0.1% w/v). Images were captured using the iBright 1,500 Imaging System (Invitrogen, USA) and the area of colonies with a minimum diameter of 100 µm was calculated using ImageJ. In the case of overlapping colonies, their total area was calculated. Finally, the area of the formed cell colonies was summed and normalized to the total colony area in the control.

The subject of data set [6] is U118 cells. Description: Annexin V-FITC/propidium iodide flow cytometry, U118, 48 h. Format: cell-based, human. On the procedure: To observe apoptosis and necrosis, U87 and U118 cells were stained with Annexin V-FITC and propidium iodide (ab14085; Abcam, Inc., Cambridge, MA, USA) after 48 h of incubation with compound 7 (0–2000 nM) according to the manufacturer’s protocol (n = 3). To quantify the total proportion of apoptotic cells in control and experimental groups, the events accumulated in the lower right quadrant (early apoptosis) and upper right quadrant (late apoptosis) were summarized.
After staining, 10,000 cells per sample were analyzed on a NovoCyte flow cytometer using NovoExpress software (ACEA Biosciences, Inc., USA).

Another data set relates to U87 cells. Description: MTT assay 72 h, 7 and TMZ alone and combined, synergy (HSA), U87. It counts as cell-based, human. The procedure: (§3) The drug synergy score was calculated for the dose-response matrix according to the highest single-agent (HSA) model using the SynergyFinder + web application (https://www.synergyfinder.org/).
Data set [7] concerns U118 cells. Description: MTT assay 72 h, 7 and TMZ alone and combined, synergy (HSA), U118. It counts as cell-based, human. The procedure:
as §3

Data set [8] deals with U87 glioblastoma tumor tissue. Description: Histology and immunohistochemistry of U87 xenograft tumors. It counts as in vivo, athymic nude mice. To be noted: day 19. On the procedure: For the histological study, the tumor specimens were fixed in 10% neutral-buffered formalin (BioVitrum, Moscow, Russia), dehydrated in ascending ethanols and xylols and embedded in HISTOMIX paraffin (BioVitrum, Russia). The paraffin sections (3–4 µm) were sliced on a Microm HM 355S microtome (Thermo Fisher Scientific, Waltham, MA, USA) and stained with hematoxylin and eosin.
For the immunohistochemical study, the tumor sections were deparaffinized and rehydrated. Antigen retrieval was carried out after exposure in a microwave oven at 700 W. The samples were incubated with anti-Ki-67 (ab16667, Abcam, Boston, MA, USA) (n = 3), anti-GFAP (ab194325, Abcam, USA) (n = 3), and anti-N-cadherin (ab76011, Abcam, USA) (n = 3) primary antibodies according to the manufacturer’s protocol. Then, the sections were incubated with secondary horseradish peroxidase (HPR)-conjugated antibodies, exposed to the 3,30-diaminobenzidine (DAB) substrate (Rabbit Specific HRP/DAB (ABC) Detection IHC Kit, ab64261, Abcam, USA) and stained with Mayer’s hematoxylin.
Five to ten random fields were examined from the tumor specimens of three mice in each group, for a total of 15–30 test fields.

Bounds are passed on as bounds.

As for `Cc1ccc(NC(=O)[C@@]2(C)CC[C@]3(C)CC[C@]4(C)[C@H](C(=O)C=C5[C@@]6(C)C=C(C#N)C(=O)C(C)(C)C6CC[C@]54C)[C@@H]3C2)cc1` (stereo partly shown) [compound 7, N-p-tolyl-2-cyano-3,12-dioxo-18βH-olean-9(11),1(2)-dien-30-amide], the relative cytotoxicity entry with U87 glioblastoma cells (48 h of incubation, U87) is on record as “high”. Besides, the IC50 with U87 glioblastoma cells (Homo sapiens, U-87 MG, 48 h) is 161 nM; in data set [1] it was 257 nM; with U87 cells (Homo sapiens, U-87 MG, MTT), 197 nM; in the data set on U118 cells [7] (Homo sapiens, MTT), 169 nM. In the data set on U87 glioblastoma cells (Homo sapiens, U-87 MG, 48 h, read-out: non-toxic concentration that reduced U87 cell viability by less than 10%), the MNTC was found to be 50 nM. In data set [2], the “death of hFF3 cells” value was “about 21%”. Moreover, the “effect on size/morphology of TGF-β1-induced U87 cells” value in the data set on TGF-β1-induced U87 cells is listed as “restored their morphological characteristics to the control cells”. Also, in data set [3], the “shape (aspect ratio) of TGF-β1-induced U118 cells” value is on record as “restored the shape of TGF-β1-induced cells to that of the control cells”. Also, the “suppression of transwell migration compared to cells stimulated with TGF-β1 alone” value in the data set with TGF-β1-treated U87 cells was determined as 1.7 fold. For the same compound, in data set [4] (24 h), the “effect on TGF-β1-enhanced wound closure at 24 h” value is listed as “completely reversed”. In [4] (48 h), the “reduction of the effect of TGF-β1 on wound closure at 48 h” value came out at 34%. The compound further came in with an inhibition at 0.05 µM with U118 cells [5] (U118, 7 50 nM) of 26.8%. For the same compound, the inhibition at 0.1 µM with U118 cells [5] (U118, 7 100 nM) amounted to 42.8%. The “percentage of cells in the right quadrants (apoptosis)” value is reported as 82.5% in the data set with U118 cells [6] (U118, 7 450 nM); 95.6% with U118 cells [6] (U118, 7 1,000 nM); 96.4% with U118 cells [6] (U118, 7 2000 nM). In addition, the “percentage of necrotic cells” value in the data set on U118 cells [6] (U118, at any concentration of 7 (450-2000 nM)) is recorded as at most 3.5%. For the same compound, the “reduction of the cytotoxic effect by NAC” value in the data set on U87 cells (U87, NAC 2 mM, TMZ 125 μM, 7 100 nM) stood at 56.2%; in the data set with U118 cells [7] (U118, NAC 2 mM, TMZ 125 μM, 7 100 nM) it was 80.3%. In addition, the “N-cadherin and GFAP levels in tumor sections (immunohistochemistry)” value in data set [8] was “significantly reduced their levels”. Further, the “reduction in the numerical density of Ki-67-positive cells compared to vehicle” value in data set [8] turned out to be 4 fold.

Source of the values: PMC11317440, “Soloxolone para-methylanilide effectively suppresses aggressive phenotype of glioblastoma cells including TGF-β1-induced glial-mesenchymal transition in vitro and inhibits growth of U87 glioblastoma xenografts in mice” (Frontiers in Pharmacology, 2024).
